Assay results as given in the supplement of paper PMC10307832.

Columns and labels:
Assay in all cases: relative viability (nuclei count vs DMSO), 5 days (fraction); higher = more cells survive
[1] = compound: Cn1cc(-c2cnc3ccc4ccc(CS(=O)(=O)NCc5ccccn5)cc4c(=O)c3c2)cn1 [MK-8033] + COc1cccc2cc(-c3nc([C@H]4CC[C@H](C(=O)O)CC4)n4ncnc(N)c34)[nH]c12 [OSI-027] (partner 0.5 µM)
Procedure, shortened: (§1)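 Five library-drug doses in √10 steps were combined with a fixed anchor-drug dose, or a single drug was given alone, by pin tool to lung cancer cell lines in 1536-well plates the day after seeding. Nuclei were stained and counted after 5 days. Relative viability is the nuclei count in treated wells over that in vehicle wells, taken as the median of duplicate plates.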

[2] = compound: Cn1cc(-c2cnc3ccc4ccc(CS(=O)(=O)NCc5ccccn5)cc4c(=O)c3c2)cn1 [MK-8033] + Nc1nc2[nH]cc(CCc3ccc(C(=O)N[C@@H](CCC(=O)O)C(=O)O)cc3)c2c(=O)[nH]1 [Pemetrexed] (partner 0.2 µM)
Procedure, shortened: as §1

[3] = compound: Cn1cc(-c2cnc3ccc4ccc(CS(=O)(=O)NCc5ccccn5)cc4c(=O)c3c2)cn1 [MK-8033] + CCNC(=O)c1noc(-c2cc(C(C)C)c(O)cc2O)c1-c1ccc(CN2CCOCC2)cc1 [Luminespib] (partner 0.01 µM)
Procedure, shortened: as §1

[4] = compound: CCc1c2c(nc3ccc(OC(=O)N4CCC(N5CCCCC5)CC4)cc13)-c1cc3c(c(=O)n1C2)COC(=O)[C@]3(O)CC [Irinotecan] + C[C@]1(O)C[C@@H](c2nc(-c3ccc4ccc(-c5ccccc5)nc4c3)c3c(N)nccn32)C1 [Linsitinib] (partner 1 µM)
Procedure, shortened: as §1

| Cell Line | relative viability ([1]; first compound 0.02 µM) | relative viability ([1]; first compound 0.2 µM) | relative viability ([1]; first compound 0.6325 µM) | relative viability ([1]; first compound 2 µM) | relative viability ([2]; first compound 0.02 µM) | relative viability ([2]; first compound 0.2 µM) | relative viability ([2]; first compound 0.6325 µM) | relative viability ([2]; first compound 2 µM) | relative viability ([3]; first compound 0.02 µM) | relative viability ([3]; first compound 0.2 µM) | relative viability ([3]; first compound 0.6325 µM) | relative viability ([3]; first compound 2 µM) | relative viability ([4]; first compound 0.6325 µM) | relative viability ([4]; first compound 2 µM) | relative viability ([4]; first compound 6.325 µM) | relative viability ([4]; first compound 20 µM) | relative viability ([1]; first compound 0.06325 µM) | relative viability ([2]; first compound 0.06325 µM) | relative viability ([3]; first compound 0.06325 µM) |
| --- | --- | --- | --- | --- | --- | --- | --- | --- | --- | --- | --- | --- | --- | --- | --- | --- | --- | --- | --- |
| HCC-827 | 0.774 | 0.735 | 0.801 | 0.758 | 0.232 | 0.257 | 0.267 | 0.243 | 0.43 | 0.591 | 0.59 | 1.07 | 0.599 | 0.302 | 0.241 | 0.258 | – | – | – |
| HOP-62 | 0.83 | 0.756 | 0.84 | 0.896 | 0.358 | 0.326 | 0.3 | 0.32 | 0.938 | 0.814 | 0.941 | 0.86 | 0.146 | 0.158 | 0.138 | 0.203 | 0.821 | 0.415 | 0.794 |
| IA-LM | – | – | – | – | – | – | – | – | – | – | – | – | 0.31 | 0.393 | 0.248 | 0.123 | – | – | – |
| LC-2-ad | 0.806 | – | 0.884 | 0.789 | 0.298 | 0.264 | 0.268 | 0.276 | 1.04 | – | 1.08 | 0.878 | 0.48 | 0.237 | 0.179 | 0.184 | 0.91 | 0.273 | 0.97 |
| LCLC-97TM1 | 0.519 | 0.431 | 0.592 | 0.568 | 0.165 | – | 0.201 | 0.173 | 0.883 | 0.709 | 0.845 | 0.669 | 0.118 | 0.189 | 0.168 | 0.169 | 0.456 | 0.134 | 0.662 |
| LCLC-103H | 0.412 | 0.437 | 0.448 | 0.509 | 0.504 | 0.457 | 0.482 | 0.458 | 0.95 | 0.954 | 0.866 | 0.952 | 0.91 | 0.352 | 0.362 | 0.411 | 0.469 | 0.446 | 0.927 |
| LK-2 | 0.202 | 0.22 | 0.189 | 0.276 | 0.329 | 0.239 | 0.335 | 0.258 | 0.172 | 0.265 | 0.187 | 0.26 | 0.468 | 0.529 | 0.309 | 0.165 | 0.227 | 0.263 | – |
| LOU-NH91 | 0.74 | 0.7 | 0.667 | 0.752 | 0.375 | 0.35 | 0.366 | 0.318 | 0.318 | 0.349 | 0.379 | 0.326 | 0.834 | 0.706 | 0.431 | 0.309 | 0.453 | 0.38 | 0.335 |
| LU99A | 0.315 | 0.299 | 0.298 | 0.307 | 0.192 | 0.158 | 0.168 | 0.187 | 0.24 | 0.258 | 0.177 | 0.241 | 0.233 | 0.247 | 0.224 | 0.238 | 0.251 | 0.183 | 0.272 |
| LXF-289 | 0.809 | 0.667 | 0.83 | 0.806 | 0.963 | 0.901 | 0.883 | 0.837 | 0.66 | 0.591 | 0.665 | 0.643 | 0.951 | 0.414 | 0.2 | 0.186 | 0.668 | 0.874 | 0.654 |
| NCI-H23 | 0.496 | 0.553 | 0.605 | 0.538 | 0.632 | 0.512 | – | 0.497 | 0.245 | – | 0.204 | 0.198 | 0.607 | 0.339 | 0.248 | 0.281 | 0.525 | 0.517 | 0.216 |
| NCI-H322M | 0.568 | 0.598 | 0.604 | 0.524 | 0.63 | 0.56 | 0.599 | 0.621 | 0.85 | 0.78 | 0.873 | 0.842 | 0.551 | 0.467 | 0.366 | 0.414 | 0.442 | 0.59 | 0.85 |
| NCI-H522 | 0.806 | 0.661 | 0.729 | 0.722 | 1.07 | 0.941 | 0.891 | 1.04 | 0.987 | 0.955 | 1.29 | 0.946 | – | – | – | – | 0.627 | 0.967 | 1.02 |
| NCI-H727 | 0.667 | 0.652 | 0.583 | 0.551 | – | – | – | – | 0.434 | 0.291 | 0.346 | 0.516 | 0.157 | 0.334 | 0.284 | 0.391 | – | – | – |
| NCI-H1299 | – | – | – | – | – | – | – | – | – | – | – | – | 0.721 | 0.865 | 0.463 | 0.266 | – | – | – |
| NCI-H1623 | 0.411 | 0.495 | 0.442 | 0.477 | – | – | – | – | 0.4 | 0.429 | 0.498 | 0.363 | – | – | – | – | 0.409 | – | 0.479 |
| NCI-H1648 | – | 0.261 | – | 0.25 | 0.733 | 0.538 | 0.81 | 0.835 | – | – | – | – | – | – | – | – | 0.261 | – | – |
| NCI-H1650 | 0.677 | 0.568 | 0.644 | 0.485 | 0.429 | 0.457 | 0.39 | 0.336 | 0.193 | 0.204 | 0.203 | 0.181 | – | – | – | – | 0.404 | 0.332 | 0.205 |
| NCI-H1703 | – | – | – | – | – | – | – | – | – | – | – | – | 0.454 | 0.916 | 0.572 | 0.186 | – | – | – |
| NCI-H2170 | 0.682 | 0.7 | 0.732 | 0.707 | 0.275 | 0.299 | 0.257 | 0.26 | 0.435 | 0.694 | 0.622 | 0.726 | – | – | – | – | 0.639 | 0.266 | 0.388 |
| NCI-H2342 | 0.588 | 0.719 | 0.665 | 0.632 | 0.729 | 0.773 | 0.814 | 0.752 | 0.774 | 0.805 | 0.631 | 0.651 | – | – | – | – | 0.64 | 0.805 | 0.643 |
| SW 900 | 0.597 | 0.515 | 0.448 | 0.597 | 0.489 | 0.47 | 0.507 | 0.463 | 0.147 | 0.177 | 0.18 | 0.187 | – | – | – | – | 0.437 | 0.401 | 0.175 |
